# In ChEMBL document CHEMBL5036347, “Design of the naphthyl-diarylpyrimidines as potent non-nucleoside reverse transcriptase inhibitors (NNRTIs) via structure-based extension into the entrance channel” (Eur J Med Chem, 2021):
# pEC50, pIC50: −log10 of the molar value.
# Experiments:
# [1] = test system: Human immunodeficiency virus 1; assay: Antiviral activity against HIV1 harboring reverse transcriptase L100I mutant infected in human MT4 cells assessed as protection against virus-induced cytopathic effect incubated for 5 days by MTT assay; assay type: functional, organism-based; details: Human immunodeficiency virus 1, MT4, 120 h
# [2] = Resistance fold, ratio of EC50 for HIV1 harboring reverse transcriptase L100I mutant […] to EC50 for wild type HIV1 […]; assay type: functional
# [3] = test system: Human immunodeficiency virus 1; assay: Antiviral activity against HIV1 harboring reverse transcriptase E138K mutant infected in human MT4 cells assessed as protection against virus-induced cytopathic effect incubated for 5 days by MTT assay; assay type: functional, organism-based; details: Human immunodeficiency virus 1, MT4, 120 h
# [4] = Resistance fold, ratio of EC50 for HIV1 harboring reverse transcriptase K103N mutant […] to EC50 for wild type HIV1 […]; assay type: functional
# [5] = Cytotoxicity against human MT4 cells assessed as reduction in cell viability incubated for 5 days by MTT assay; assay type: cell-based; details: human, MT4 cells; time 5 day
# [6] = Resistance fold, ratio of EC50 for HIV1 harboring reverse transcriptase F227L/V106A double mutant […] to EC50 for wild type HIV1 […]; assay type: functional
# [7] = test system: Human immunodeficiency virus 1; assay: Antiviral activity against HIV1 harboring reverse transcriptase K103N/Y181C double mutant infected in human MT4 cells assessed as protection against virus-induced cytopathic effect incubated for 5 days by MTT assay; assay type: functional, organism-based; details: Human immunodeficiency virus 1, MT4, 120 h
# [8] = test system: Human immunodeficiency virus 2; assay: Anti-HIV activity against HIV2 ROD infected in human MT4 cells assessed as reduction in virus-induced cytopathic effect incubated for 5 days by MTT assay; assay type: functional, organism-based; details: Human immunodeficiency virus 2, ROD, MT4, 120 h
# [9] = Resistance fold, ratio of EC50 for HIV1 harboring reverse transcriptase Y188L mutant […] to EC50 for wild type HIV1 […]; assay type: functional
# [10] = target: Human immunodeficiency virus type 1 reverse transcriptase (Human immunodeficiency virus 1, UniProt Q72547); assay: Inhibition of wild type HIV1 reverse transcriptase using oligo(dT)16 as primer measured after 40 mins by picogreen-dye based spectrofluorimetric analysis
# [11] = Resistance fold, ratio of EC50 for HIV1 harboring reverse transcriptase E138K mutant […] to EC50 for wild type HIV1 […]; assay type: functional
# [12] = Resistance fold, ratio of EC50 for HIV1 harboring reverse transcriptase K103N/Y181C double mutant […] to EC50 for wild type HIV1 […]; assay type: functional
# [13] = test system: Human immunodeficiency virus 1; assay: Antiviral activity against HIV1 harboring reverse transcriptase Y181C mutant infected in human MT4 cells assessed as protection against virus-induced cytopathic effect incubated for 5 days by MTT assay; assay type: functional, organism-based; details: Human immunodeficiency virus 1, MT4, 120 h
# [14] = test system: Human immunodeficiency virus 1; assay: Antiviral activity against HIV1 harboring reverse transcriptase Y188L mutant infected in human MT4 cells assessed as protection against virus-induced cytopathic effect incubated for 5 days by MTT assay; assay type: functional, organism-based; details: Human immunodeficiency virus 1, MT4, 120 h
# [15] = test system: Human immunodeficiency virus 1; assay: Antiviral activity against HIV1 harboring reverse transcriptase F227L/V106A mutant infected in human MT4 cells assessed as protection against virus-induced cytopathic effect incubated for 5 days by MTT assay; assay type: functional, organism-based; details: Human immunodeficiency virus 1, MT4, 120 h
# [16] = test system: Human immunodeficiency virus 1; assay: Antiviral activity against HIV1 harboring reverse transcriptase K103N mutant infected in human MT4 cells assessed as protection against virus-induced cytopathic effect incubated for 5 days by MTT assay; assay type: functional, organism-based; details: Human immunodeficiency virus 1, MT4, 120 h
# [17] = Resistance fold, ratio of EC50 for HIV1 harboring reverse transcriptase Y181C mutant […] to EC50 for wild type HIV1 […]; assay type: functional
# [18] = Selectivity index, ratio of CC50 for cytotoxicity against human MT4 cells to EC50 of Anti-HIV activity against HIV-1 IIIB infected in human MT4; assay type: toxicity, cell-based; details: read-out: Selectivity Index
# [19] = test system: Human immunodeficiency virus 1; assay: Anti-HIV activity against HIV-1 IIIB infected in human MT4 cells assessed as reduction in virus-induced cytopathic effect incubated for 5 days by MTT assay; assay type: functional, organism-based; details: Human immunodeficiency virus 1, IIIB, MT4, 120 h
SMILES,pEC50 [1],Ratio EC50 [2],pEC50 [3],Ratio EC50 [4],CC50 at 120 h [5],Ratio EC50 [6],pEC50 [7],pEC50 [8],Ratio EC50 [9],pIC50 [10],Ratio EC50 [11],Ratio EC50 [12],pEC50 [13],pEC50 [14],pEC50 [15],pEC50 [16],Ratio EC50 [17],selectivity ratio [18],pEC50 [19],also measured
CCCC(CCC)Nc1cc(Oc2c(OC)cc3cc(C#N)ccc3c2OC)nc(Nc2ccc(C#N)cc2)n1,3.89,181,5.80,1,> 125 µM,>1416,< 3.00,< 3.00,>1416,6.21,2,>1416,4.58,< 3.00,< 3.00,6.44,37,> 330,6.15,–
COc1cc2cc(C#N)ccc2c(OC)c1Oc1cc(NCCCOC(C)C)nc(Nc2ccc(C#N)cc2)n1,5.91,29,7.24,3,> 125 µM,>23202,5.68,< 3.00,58,6.49,1,48,6.26,5.60,< 3.00,7.48,13,> 5380,7.37,–
COc1cc2cc(C#N)ccc2c(OC)c1Oc1cc(NC2CCCCC2)nc(Nc2ccc(C#N)cc2)n1,4.40,379,6.24,1,> 125 µM,>9533,4.01,–,479,6.36,2,933,5.90,4.30,< 3.00,6.89,12,> 2290,7.00,pIC50 [8]: < 3.00
COc1cc2cc(C#N)ccc2c(OC)c1Oc1cc(NC2CCOC2)nc(Nc2ccc(C#N)cc2)n1 (stereo not drawn),6.64,19,7.33,1,> 125 µM,156,6.19,< 3.00,43,6.74,2,49,7.07,6.25,5.70,7.55,7,> 19000,7.89,–
COc1cc2cc(C#N)ccc2c(OC)c1Oc1cc(NC2CC2)nc(Nc2ccc(C#N)cc2)n1,6.23,29,7.21,2,> 125 µM,468,5.89,< 3.00,45,7.10,3,63,6.72,–,5.02,7.42,9,> 12700,7.70,pIC50 [14]: 6.04
COc1cc2cc(C#N)ccc2c(OC)c1Oc1cc(NCC(F)(F)F)nc(Nc2ccc(C#N)cc2)n1,6.31,14,–,1,> 125 µM,168,5.60,3.73,51,6.85,2,71,6.44,5.74,5.23,7.40,10,> 6820,7.46,pIC50 [3]: 7.14
COc1cc2cc(C#N)ccc2c(OC)c1Oc1cc(NCC(C)(C)C)nc(Nc2ccc(C#N)cc2)n1,5.06,103,6.51,2,> 125 µM,>11723,3.00,< 3.00,1313,6.29,4,>11723,5.62,3.95,< 3.00,6.85,28,> 2880,7.07,–
